In US20060252807A1, “Novel ortho-terphenyl inhibitors of p38 kinase and methods of treating inflammatory disorders” (Kalypsys, Inc., priority 2005, published 2006):

target: T1, active p38 alpha enzyme (Upstate Biotechnology) (Homo sapiens, UniProt Q16539); experiment: p38α biochemical assay (ATP turnover, luminescent detection, Cambrex PKlight); conditions: p38α kinase; Table 1 Biological Activity
T1 construct: purchased Upstate Biotechnology
Method in brief: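 Luminescent PKlight readout of total ATP consumption follows a 2 h, 30C kinase reaction. Enzyme and MapkapK2 substrate run with 1.4 uM ATP (final) in buffer containing Mg2+, Ca2+, chelators, glycerol, reducing agent and BSA; test compounds added by pintool from DMSO.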

T1 sequence (Q16539 whole entry): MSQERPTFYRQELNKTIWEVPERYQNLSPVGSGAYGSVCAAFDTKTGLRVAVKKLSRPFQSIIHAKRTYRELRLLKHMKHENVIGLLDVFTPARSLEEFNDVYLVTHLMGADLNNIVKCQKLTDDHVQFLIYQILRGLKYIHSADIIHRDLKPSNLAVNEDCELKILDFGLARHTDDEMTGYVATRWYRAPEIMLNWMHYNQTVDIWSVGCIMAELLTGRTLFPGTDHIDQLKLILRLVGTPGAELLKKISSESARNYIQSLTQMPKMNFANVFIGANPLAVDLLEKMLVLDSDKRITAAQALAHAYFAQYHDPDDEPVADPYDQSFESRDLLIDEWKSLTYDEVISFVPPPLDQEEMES

Structure (SMILES) | IC50 [nM]
Cc1nc(-c2ccc(F)cc2)c(-c2nc(C(=O)Nc3ncccc3OCc3ccccc3)cs2)s1 [Example 2021] | > 1000
Cc1nc(-c2ccc(F)cc2)c(-c2nc(C(=O)Nc3cc(C(F)(F)F)ccc3C(F)(F)F)cs2)s1 [Example 2022] | > 1000
Cc1nc(-c2ccc(F)cc2)c(-c2nc(C(=O)Nc3cc(C(F)(F)F)cc(C(F)(F)F)c3)cs2)s1 [Example 2023] | > 1000
O=C(O)c1csc(-c2c(-c3ccc(F)cc3)n[nH]c2C2CCNCC2)n1 [Example 2030] | > 1000
CCCNC(=O)c1csc(-c2c(-c3ccc(F)cc3)n[nH]c2C2CCNCC2)n1 [Example 2034] | > 1000
NCCNC(=O)c1csc(-c2c(-c3ccc(F)cc3)n[nH]c2C2CCNCC2)n1 [Example 2035] | > 1000
N#CCCNC(=O)c1csc(-c2c(-c3ccc(F)cc3)n[nH]c2C2CCNCC2)n1 [Example 2037] | > 1000
CC(C)CNC(=O)c1csc(-c2c(-c3ccc(F)cc3)n[nH]c2C2CCNCC2)n1 [Example 2040] | > 1000
CCC(C)CNC(=O)c1csc(-c2c(-c3ccc(F)cc3)n[nH]c2C2CCNCC2)n1 (stereo not shown) [Example 2046] | > 1000
CC(C)C(C)NC(=O)c1csc(-c2c(-c3ccc(F)cc3)n[nH]c2C2CCNCC2)n1 (stereo not shown) [Example 2047] | > 1000
CC(C)CCNC(=O)c1csc(-c2c(-c3ccc(F)cc3)n[nH]c2C2CCNCC2)n1 [Example 2048] | > 1000
CN(C)CCNC(=O)c1csc(-c2c(-c3ccc(F)cc3)n[nH]c2C2CCNCC2)n1 [Example 2049] | > 1000
COCC(C)NC(=O)c1csc(-c2c(-c3ccc(F)cc3)n[nH]c2C2CCNCC2)n1 (stereo not shown) [Example 2050] | > 1000

Continued, values first:

IC50 [nM] | Structure (SMILES)
> 1000 | Cc1nc(-c2ccc(F)cc2)c(-c2nc(C(=O)Nc3cc(Cl)c(Cl)c(Cl)c3)cs2)s1 [Example 2017]
> 1000 | Cc1nc(-c2ccc(F)cc2)c(-c2nc(C(=O)Nc3ccccc3C(=O)c3ccccc3)cs2)s1 [Example 2018]
> 1000 | Cc1nc(-c2ccc(F)cc2)c(-c2nc(C(=O)Nc3ccccc3COc3ccccc3)cs2)s1 [Example 2019]
> 1000 | COc1ccc(-c2ccccc2)cc1NC(=O)c1csc(-c2sc(C)nc2-c2ccc(F)cc2)n1 [Example 2020]
≤ 1000 | Cc1nc(-c2ccc(F)cc2)c(-c2nc(C(=O)Nc3ccc(C(F)(F)F)cc3C(F)(F)F)cs2)s1 [Example 2024]
≤ 1000 | O=C(NCC1CC1)c1csc(-c2c(-c3ccc(F)cc3)n[nH]c2C2CCNCC2)n1 [Example 2029]
≤ 1000 | CNC(=O)c1csc(-c2c(-c3ccc(F)cc3)n[nH]c2C2CCNCC2)n1 [Example 2031]
≤ 1000 | N#CCNC(=O)c1csc(-c2c(-c3ccc(F)cc3)n[nH]c2C2CCNCC2)n1 [Example 2032]
≤ 1000 | O=C(NC1CC1)c1csc(-c2c(-c3ccc(F)cc3)n[nH]c2C2CCNCC2)n1 [Example 2033]
≤ 1000 | O=C(NCCO)c1csc(-c2c(-c3ccc(F)cc3)n[nH]c2C2CCNCC2)n1 [Example 2036]
≤ 1000 | O=C(NC1CCC1)c1csc(-c2c(-c3ccc(F)cc3)n[nH]c2C2CCNCC2)n1 [Example 2038]
≤ 1000 | CCC(C)NC(=O)c1csc(-c2c(-c3ccc(F)cc3)n[nH]c2C2CCNCC2)n1 (stereo not shown) [Example 2039]
≤ 1000 | O=C(NCCCO)c1csc(-c2c(-c3ccc(F)cc3)n[nH]c2C2CCNCC2)n1 [Example 2041]
≤ 1000 | CC(CO)NC(=O)c1csc(-c2c(-c3ccc(F)cc3)n[nH]c2C2CCNCC2)n1 (stereo not shown) [Example 2042]
≤ 1000 | COCCNC(=O)c1csc(-c2c(-c3ccc(F)cc3)n[nH]c2C2CCNCC2)n1 [Example 2043]
≤ 1000 | O=C(NC1CCCC1)c1csc(-c2c(-c3ccc(F)cc3)n[nH]c2C2CCNCC2)n1 [Example 2044]
≤ 1000 | CCCC(C)NC(=O)c1csc(-c2c(-c3ccc(F)cc3)n[nH]c2C2CCNCC2)n1 (stereo not shown) [Example 2045]
≤ 1000 | CCC(CO)NC(=O)c1csc(-c2c(-c3ccc(F)cc3)n[nH]c2C2CCNCC2)n1 (stereo not shown) [Example 2051]
